From patent US9790201B2, “Piperidine and azepine derivatives as prokineticin receptor modulators” (TAKEDA PHARMACEUTICAL COMPANY LIMITED, priority 2013, dated 2017)

biological target: human PKR1 receptors (Homo sapiens (Human), UniProt Q8TCW9); assay: PKR1 antagonist assay: block of PK1-mediated intracellular calcium release (FLIPR Tetra); type: cell-based; settings: RBL2H3 cells expressing human PKR1; stimulation with PK1 at EC80; calcium fluorescence
Procedure, shortened: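 RBL2H3 cells expressing human PKR1, loaded 1 h at 37 °C with Calcium 5 dye plus 1 mM probenecid in HBSS/25 mM HEPES/0.1% BSA, pH 7.4. Compounds (0.32 nM–10 µM final) preincubated 10 min, then PK1 added at EC80; fluorescence read at 525 nm (excitation 485 nm).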

Chain of human PKR1 receptors (Q8TCW9 whole entry): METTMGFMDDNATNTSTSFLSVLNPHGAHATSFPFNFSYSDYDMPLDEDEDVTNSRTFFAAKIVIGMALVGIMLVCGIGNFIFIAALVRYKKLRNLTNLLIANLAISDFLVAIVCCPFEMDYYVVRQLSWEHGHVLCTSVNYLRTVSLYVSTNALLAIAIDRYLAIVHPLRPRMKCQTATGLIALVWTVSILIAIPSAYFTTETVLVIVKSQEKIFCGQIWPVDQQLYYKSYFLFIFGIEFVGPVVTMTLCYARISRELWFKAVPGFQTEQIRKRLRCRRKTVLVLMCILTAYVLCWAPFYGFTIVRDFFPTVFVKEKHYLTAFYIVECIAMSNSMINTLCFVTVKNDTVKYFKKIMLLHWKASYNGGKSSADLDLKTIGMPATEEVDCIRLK

| IC50 [nM] | Compound |
| --- | --- |
| 1270 | CNc1cc(C(=O)N2CCCCC(c3ccc(OC)cc3)C2)cnn1 (stereo not drawn) [Example 112, 5-{[3-(4-Methoxyphenyl)azepan-1-yl]carbonyl}-N-methylpyridazin-3-amine] |
| 930 | CNc1cc(C(=O)N2CCCCC(c3ccc(Cl)cc3)C2)cnn1 (stereo not drawn) [Example 113, 5-{[3-(4-Chlorophenyl)azepan-1-yl]carbonyl}-N-methylpyridazin-3-amine] |
| 1430 | COc1ccc(C2CCCCN(C(=O)c3cnnc(N(C)C)c3)C2)cc1 (stereo not drawn) [Example 114, 5-{[3-(4-Methoxyphenyl)azepan-1-yl]carbonyl}-N,N-dimethylpyridazin-3-amine] |
| 1440 | CN(C)c1cc(C(=O)N2CCCCC(c3ccc(Cl)cc3)C2)cnn1 (stereo not drawn) [Example 115, 5-{[3-(4-Chlorophenyl)azepan-1-yl]carbonyl}-N,N-dimethylpyridazin-3-amine] |
| 1360 | Cc1cc(Cl)ccc1C1(O)CCCN(C(=O)c2ccnc(N(C)C)c2)C1 (stereo not drawn) [Example 116, 3-(4-Chloro-2-methylphenyl)-1-{[2-(dimethylamino)pyridin-4-yl]carbonyl}piperidin-3-ol] |
| 3940 | CN(C)c1cc(C(=O)N2CCCC(O)(c3ccc(F)cc3)C2)ccn1 (stereo not drawn) [Example 117, 1-{[2-(Dimethylamino)pyridin-4-yl]carbonyl}-3-(4-fluorophenyl)piperidin-3-ol] |
